# According to patent US20260048046A1, “METHOD FOR IMPROVING GROWTH PERFORMANCE IN FEEDLOT CATTLE” (Elanco US Inc., priority 2022, published 2026):
# Tests used:
# [1] = tested on: beef feedlot cattle; assay: 56-d study: animal mobility (NAMI mobility score); format: in vivo; settings: for Percentage of steers, mobility score 1, Lairage / Percentage of steers, mobility score 2, Lairage / Percentage of steers, mobility score >2, Lairage / Percentage of steers, mobility score 1, Pen / Percentage of steers, mobility score 2, Pen / Percentage of steers, mobility score >2, Pen / Percentage of steers, mobility score 1, Loadout / Percentage of steers, mobility score 2, Loadout / Percentage of steers, mobility score >2, Loadout: final 56 d; for Percentage of steers, mobility score 1, Lairage / Percentage of steers, mobility score 2, Lairage / Percentage of steers, mobility score >2, Lairage: antemortem inspection at the packing plant; for Percentage of steers, mobility score 1, Pen / Percentage of steers, mobility score 2, Pen / Percentage of steers, mobility score >2, Pen: approx. 1 wk prior to harvest in home pens; for Percentage of steers, mobility score 1, Loadout / Percentage of steers, mobility score 2, Loadout / Percentage of steers, mobility score >2, Loadout: immediately prior to loading into trucks
# Procedure: Animal mobility assessments were conducted three times prior to harvest at: 1) approximately 1 week prior to harvest while cattle were in their home pens; 2) after collection of final pen weights and immediately prior to loading into trucks for slaughter; and 3) at antemortem inspection during lairage at the packing plant. The mobility scorer used the North American Meat Institute's (NAMI) mobility scoring system (Edwards-Callaway et al., 2017) to evaluate cattle mobility.
# The label claim variable of cumulative NH3 gas emissions over the treatment period normalized by final BW (with d −59 BW as a covariate) for the period and HCW (g of gas kg^−1 of BW or g of gas kg^−1 HCW) was determined by utilizing NH3 gas emissions equations developed from the LUB clinical effectiveness study (FDA-FOI, 2018) and validated using animals of similar BW as described by Brown et al. (2019). The pen was the experimental unit for each outcome. Differences were deemed significant using a two-sided test at Ptrt≤0.05, however, a less stringent significance threshold of Ptrt≤0.10 was used for abnormal health observations. Fixed effect of treatment and random effects of time replicate and block within time replicate were included in the model. Discrete variables were analyzed using a generalized linear mixed model, Proc GLIMMIX SAS version 9.4 unless there were convergence problems due to sparseness of data. A binomial distribution was assumed and a logit link used in the analysis. Contrasts were constructed between the CON group and each non-CON dosage group, and differences were deemed significant at Pdose≤0.05. If convergence problems arose due to sparseness of data, Fisher's exact test (binomial data; Proc FREQ in SAS) or Wilcoxon's rank-sum test (categorical data; Proc NARIWAY in SAS) was used to evaluate differences between the CON group and the non-CON dosage groups. In all cases except for health observations, differences were deemed significant at Ptrt≤0.05 for these primary discrete variables. Additionally, non-CON dosage groups were compared to one another using a significance level of Pdose≤0.05. A less stringent Ptrt≤0.10 level of significance was used for health observations.
# [2] = tested on: beef steers; assay: Lubabegron removal period study: carcass measures; format: in vivo, cattle; settings: for Calculated YG / Ribeye Area / HCW / Marbling / Dressing: Lubabegron 3.5 mg/kg DM fed 56 d; for HCW: steers; for Marbling: 500 = Small; for Dressing: final liveweight with 4% shrink
# Procedure: This experiment was conducted to evaluate the effect of removing lubabegron from feed for increasing intervals prior to slaughter on growth performance of steers.
# Seven hundred English x Continental cross steers (initial BW=531±8.8 kg) were used in a randomized complete block design with seven treatments. Pen served as the experimental unit. […] Animals were managed as two-time replications with each replication containing five blocks (7 pens/block and 10 steers/pen). All ten blocks started and ended within 48 hours of each other. Cattle were weighed by pen using a 45,000-kg capacity pen scale (Model WI-130, Avery Weigh-Tronix LLC, Fairmont, MN; 3.66 m×21.34 m). All treatments were on feed for 71 d with harvest scheduled for 72 d. Because of an impending weather event, cattle were weighed to obtain a final BW one d early. Cattle were placed on their respective ration for the additional d and then shipped to the harvest facility the following morning.
# 657 head were transported to a harvest facility approximately 495 km from the research facility. Animals were scored for animal mobility using the North American Meat Institute (NAMI, 2015) scoring scale described by Edwards-Callaway et al., (2017) while in lairage. […] Experienced staff collected an ear tag number, plant identification (ID), and carcass sequence and applied a unique carcass ID. Data collected on the kill floor included HCW, instances of excessive trim (>approximately 9 kg), and prevalence of liver abscess (Brown et al., 1975). Other carcass measures were obtained via instrument grading.
# Continuous variables were analyzed using the Mixed procedure of SAS (version 9.4; SAS Institute, Cary, NC). Block served as a random effect whereas treatment was fixed. Initial body weight was used to describe the uniformity of cattle randomized to treatment and used as a covariate when appropriate. Data were calculated with deads and removals excluded. Linear and quadratic effects of lubabegron removal were conducted as were individual comparisons for duration of removal (i.e., 0 vs 2 d; 0 vs 4 d, 0 vs 6 d; 0 vs 8 d and 0 vs 16 d). Fisher's Exact test was evaluated on mobility scores 1 and 2. No test was conducted on mobility scores of 3 or 4 because no scores were reported. Simple means and standard deviation of the tissues collected for the 5 animals were calculated.
structure (smiles),measurement,setting,value
"CC(C)(Cc1ccc(Oc2ncccc2C#N)cc1)NC[C@H](O)COc1ccccc1-c1cccs1 [LUB, 2-{4-[2-({(2S)-2-Hydroxy-3-[2-(2-thienyl)phenoxy]propyl}amino)-2-methylpropyl]phenoxy}nicotinonitrile]","Percentage of steers, mobility score 1, Lairage",[1]; 1.5 mg·kg^−1 DM,80.2%
same,"Percentage of steers, mobility score 2, Lairage",[1]; 1.5 mg·kg^−1 DM,11.8%
same,"Percentage of steers, mobility score >2, Lairage",[1]; 1.5 mg·kg^−1 DM,8.0%
same,"Percentage of steers, mobility score 1, Pen",[1]; 1.5 mg·kg^−1 DM,85.0%
same,"Percentage of steers, mobility score 2, Pen",[1]; 1.5 mg·kg^−1 DM,11.4%
same,"Percentage of steers, mobility score >2, Pen",[1]; 1.5 mg·kg^−1 DM,3.6%
same,"Percentage of steers, mobility score 1, Loadout",[1]; 1.5 mg·kg^−1 DM,76.6%
same,"Percentage of steers, mobility score 2, Loadout",[1]; 1.5 mg·kg^−1 DM,21.4%
same,"Percentage of steers, mobility score >2, Loadout",[1]; 1.5 mg·kg^−1 DM,2.0%
same,"Percentage of steers, mobility score 1, Lairage",[1]; 3.5 mg·kg^−1 DM,81.7%
same,"Percentage of steers, mobility score 2, Lairage",[1]; 3.5 mg·kg^−1 DM,12.1%
same,"Percentage of steers, mobility score >2, Lairage",[1]; 3.5 mg·kg^−1 DM,6.2%
same,"Percentage of steers, mobility score 1, Pen",[1]; 3.5 mg·kg^−1 DM,85.9%
same,"Percentage of steers, mobility score 2, Pen",[1]; 3.5 mg·kg^−1 DM,10.4%
same,"Percentage of steers, mobility score >2, Pen",[1]; 3.5 mg·kg^−1 DM,3.7%
same,"Percentage of steers, mobility score 1, Loadout",[1]; 3.5 mg·kg^−1 DM,73.7%
same,"Percentage of steers, mobility score 2, Loadout",[1]; 3.5 mg·kg^−1 DM,23.1%
same,"Percentage of steers, mobility score >2, Loadout",[1]; 3.5 mg·kg^−1 DM,3.2%
same,"Percentage of steers, mobility score 1, Lairage",[1]; 5.5 mg·kg^−1 DM,80.9%
same,"Percentage of steers, mobility score 2, Lairage",[1]; 5.5 mg·kg^−1 DM,12.6%
same,"Percentage of steers, mobility score >2, Lairage",[1]; 5.5 mg·kg^−1 DM,6.5%
same,"Percentage of steers, mobility score 1, Pen",[1]; 5.5 mg·kg^−1 DM,86.9%
same,"Percentage of steers, mobility score 2, Pen",[1]; 5.5 mg·kg^−1 DM,8.3%
same,"Percentage of steers, mobility score >2, Pen",[1]; 5.5 mg·kg^−1 DM,4.8%
same,"Percentage of steers, mobility score 1, Loadout",[1]; 5.5 mg·kg^−1 DM,71.3%
same,"Percentage of steers, mobility score 2, Loadout",[1]; 5.5 mg·kg^−1 DM,25.0%
same,"Percentage of steers, mobility score >2, Loadout",[1]; 5.5 mg·kg^−1 DM,3.7%
same,Cattle scoring a mobility score of 1 or 2,"[1]; 56 d, all treatments, at all assessment times",≥ 92%
same,"Animals receiving abnormal mobility scores of >2, across treatments","[1]; 56 d, any assessment time point prior to harvest",not different across treatments
same,"Percent of cattle scored 1 (mobility), differences among treatments","[1]; 56 d, any assessment time, Ptrt≥0.17",No differences
same,"Percent of cattle receiving mobility scores of 1 or 2, treatment differences","[1]; 56 d, at any time, Ptrt≥0.170",No treatment differences
same,Calculated YG,[2]; removal duration 0 d,3.08
same,Ribeye Area,[2]; removal duration 0 d,91.0 cm^2
same,HCW,[2]; removal duration 0 d,409 kg
same,Marbling,[2]; removal duration 0 d,482
same,Dressing,[2]; removal duration 0 d,62.7%
same,Calculated YG,[2]; removal duration 2 d,3.20
same,Ribeye Area,[2]; removal duration 2 d,90.3 cm^2
same,HCW,[2]; removal duration 2 d,411 kg
same,Marbling,[2]; removal duration 2 d,491
same,Dressing,[2]; removal duration 2 d,62.7%
same,Calculated YG,[2]; removal duration 4 d,3.21
same,Ribeye Area,[2]; removal duration 4 d,90.3 cm^2
same,HCW,[2]; removal duration 4 d,413 kg
same,Marbling,[2]; removal duration 4 d,488
same,Dressing,[2]; removal duration 4 d,62.8%
same,Calculated YG,[2]; removal duration 6 d,3.06
same,Ribeye Area,[2]; removal duration 6 d,91.6 cm^2
same,HCW,[2]; removal duration 6 d,410 kg
same,Marbling,[2]; removal duration 6 d,483
same,Dressing,[2]; removal duration 6 d,62.9%
same,Calculated YG,[2]; removal duration 8 d,3.14
same,Ribeye Area,[2]; removal duration 8 d,90.3 cm^2
same,HCW,[2]; removal duration 8 d,413 kg
same,Marbling,[2]; removal duration 8 d,483
same,Dressing,[2]; removal duration 8 d,63.0%
same,Calculated YG,[2]; removal duration 16 d,3.18
same,Ribeye Area,[2]; removal duration 16 d,89.0 cm^2
same,Marbling,[2]; removal duration 16 d,484
same,Dressing,[2]; removal duration 16 d,62.6%
same,Effect of removal duration on any measured carcass parameter,"[2]; lubabegron 3.5 mg/kg DM, removal 0 to 16 d, P>0.05",no effect
same,Calculated yield grade improvement vs non-treated group,[2]; lubabegron fed for 56 d with a 0 d removal,10.5%
same,Effects on BW and HCW of duration of lubabegron removal,[2]; removal up to 16 d,not affected
